# Measured values as given in patent US12545695B2, “Compounds for inhibiting neovascularization factors and use thereof” (UNIST (ULSAN NATIONAL INSTITUTE OF SCIENCE AND TECHNOLOGY), priority 2019, dated 2026).
# Experiments:
# TRAP-1 [1] = assay: Pull-down assay: client proteins SIRT3 and SDHB on GST-TRAP1 beads; assay type: binding; settings: TRAP1-bead form with isolated mitochondria and drug, 4° C., 18 hours (FIG. 14)
# Protocol: A pull-down assay was performed to confirm whether SMx competitively binds to SIRT3 and SDHB, which are known as client proteins of TRAP-1. TRAP1 protein in the GST fusion form was purified from bacteria cells and then bound to glutathione beads to make a TRAP1-bead form, and then the TRAP1-bead form was bound to the mitochondria isolated from mammalian cells (Thermo Scientific mitochondria isolation kit) with a drug at 4° C. for 18 hours. The cells were treated with SMx, and gamitrinib and PU-H71, which are previously developed N-terminal domain inhibitors of hsp90s, as the drugs, according to the concentrations shown in the drawing. […] This is strong evidence that SMx has the ability to bind to the middle domain of TRAP-1.
# TRAP-1 [2] = assay: ATPase activity assay (PiColorLock Gold Phosphate Detection Kit); assay type: biochemical; settings: TRAP1 0.5 μM, 0.2 mM ATP, inhibitor 0.520 μM preincubated 30 minutes (FIG. 16)
# Protocol: ATPase activity was measured by measuring the release of inorganic phosphates through the PiColorLock Gold Phosphate Detection Kit (Innova Biosciences) according to the manufacturer's manual. TRAP1 (0.5 μM) was cultured with 0.2 mM ATP in 100 mM Tris, 20 mM KCl, and 6 mM MgCl2 under the conditions of pH 7.0 and 37° C. for 3 hours. Thereafter, the PiColorLock Gold reagent and an accelerator (100:1) were added to a 100 μL ATP hydrolyzate sample. After culturing at 25° C. for 5 minutes, the change in color was stopped by adding 10 μL of a stop solution thereto, and the absorbance at 620 nm was measured by SYNERGY NEO microplate reader (BioTek Instruments).
# For inhibitory ability analysis, TRAP1 was cultured with a predetermined concentration (0.520 μM) of inhibitor for 30 minutes and then stirred with ATP. Absorbance values were normalized to a DMSO control and data was expressed as % ATPase activity.
# For inhibitory ability analysis, TRAP-1 was cultured with a predetermined concentration (0.520 μM) of inhibitor for 30 minutes and then stirred with ATP. Absorbance values were normalized to a DMSO control and data was expressed as % ATPase activity.
Molecule,"binding of the client protein (SIRT3, SDHB) to TRAP-1 (TRAP-1 [1])",ATPase activity of TRAP-1 (TRAP-1 [2])
CC(C)NCCCn1c(Sc2cc3c(cc2I)OCO3)nc2c(N)ncnc21 [PU-H71],not significantly changed,significantly decreased according to the concentration
gamitrinib,not significantly changed,–
